# Test results taken from patent US5808139A (Ligand Pharmaceuticals Incorporated, priority 1994, dated 1998).
# Entries after “also recorded” stand apart in the source; their conditions may differ.
# Key:
# [1] = test system: human progesterone receptor altered at the Tau-1 location; test: Co-transfection assay in CV-1 cells, progesterone receptor altered at Tau-1, antagonist activity; format: cell-based; settings: for Efficacy (% maximal response relative to RU-486), CV-1 cells: antagonist activity; for IC50: concentration required to reduce the maximal response by 50%, read-out: Potency (IC50), CV-1 cells
# Excerpt: (§1) This assay is described in further detail in U.S. Pat. Nos. 4,981,784 and 5,071,773, which are incorporated herein by reference. The co-transfection assay provides a method for identifying functional ligands (either agonists which mimic, or antagonists which inhibit, the effect of hormones) for ligand-responsive receptor proteins.
# (§2) The co-transfection assay provides a mechanism to evaluate ability of a compound to function as an agonist or antagonist of the activity modulated by an intracellular receptor. The co-transfection assay mimics an in vivo system in the laboratory. In the co-transfection assay, a cloned gene for an intracellular receptor is introduced by transfection (a procedure to induce cells to take up foreign genes) into a background cell substantially devoid of endogenous intracellular receptors. This introduced gene directs the recipient cells to make the intracellular receptor protein. A second gene is also introduced (co-transfected) into the same cells in conjunction with the intracellular receptor gene. This second gene functions as a reporter for the transcription-modulating activity of the target intracellular receptor. The reporter acts as a surrogate for the products normally expressed by a gene under control of the target receptor and its natural hormone.
# (§3) A preferred reporter gene is one which expresses the firefly enzyme luciferase. The co-transfection assay can detect small molecule agonists or antagonists of target intracellular receptors. Exposing the cells to an agonist ligand increases reporter activity in the transfected cells that can be conveniently measured, reflecting ligand-dependent, intracellular receptor-mediated increases in reporter transcription. To detect antagonists, the co-transfection assay is carried out in the presence of a constant concentration of an agonist known to induce a defined reporter signal. Increasing concentrations of a test antagonist will decrease the reporter signal. The co-transfection assay is therefore useful to detect both agonists and antagonists of specific intracellular receptors. It determines not only whether a compound interacts with a particular intracellular receptor, but also whether this interaction mimics (agonizes) or blocks (antagonizes) the effects of the natural regulatory molecules on target gene expression.
# (§4) Co-transfected cells are exposed to a medium to which is added the potential ligand that is being evaluated. If the candidate ligand diffuses into the cell and binds to the receptor and the resulting complex functions as an agonist, it binds to the co-transfected reporter gene and initiates transcription. When that gene is one that expresses, for example, luciferase, luciferase is produced which catalyzes a light-emitting reaction with its substrate luciferin. Thus, after cell lysis and the introduction of luciferin, the amount of light produced relative to the concentration of candidate ligand used in the assay provides a measure of the potency and efficacy of the compound tested. Antagonist activity is evaluated by adding the candidate ligand and a known agonist to the co-transfected cells.
# (§5) The receptor cDNA was introduced in a mammalian expression vector under the control of the Rous Sarcoma virus LTR. […] A reporter vector was also transfected, containing a firefly luciferase gene under the control of the hormone-responsive promoter. […] The level of luciferase activity was then measured in cell extracts. Light emission is directly proportional to the effectiveness of the hormone-receptor complex in activating gene expression.
# A total of three replicates per concentration point were tested for each compound, and the EC50 was calculated for each positive response. Both agonist and antagonist activity for each test compound was determined in parallel. […]
# [2] = test system: progesterone receptor (T47D cells); test: Antagonist assay in T47D (human breast cancer) cells (Tables 1 and 2); format: cell-based; settings: for Efficacy (% maximal response relative to RU-486), T47D cells: antagonist activity; for IC50: concentration required to reduce the maximal response by 50%, read-out: Potency (IC50), T47D cells
# Excerpt: The functional activities of the cyclocymopol analogues in the human breast cell line, T47D, were also investigated. T47D cells have proven to be a particularly useful model to investigate the molecular actions of sex steroids because they contain endogenous functional receptors for, and respond to, progestins, and their respective antagonists. […] In T47D cells, progestins induce de novo synthesis of a plasma-associated alkaline phosphatase, which has been reported to be similar, if not identical, to the alkaline phosphatase present in the normal breast and human milk. These tests were conducted according to the following illustrative example.
# The assay was also run using T47D (human breast cancer) cells.
# [3] = test system: endometrium of the uterus; test: Decidualization assay in pseudopregnant mice, oil-induced uterine weight gain; format: in vivo; settings: for Inhibition of decidualization weight gain: vs oil control; for Net Uterine Weight Gain: intraluminal, autopsy Day 7, oil alone control 334.7 +/- 41.0
# Method: A successful pregnancy requires not only the effective collision and fusion of egg and spermatozoon, but also the provision of a receptive and supportive uterus. The preparation of the endometrium of the uterus for implantation (i.e. decidualization) starts well before the blastocyst arrives in the uterus.
# Psuedopregnant mice (i.e. mated with vasectomized males) were used to establish the assay system. […] At 16 hours of Day 4, a small volume of sesame oil (10 μl) was introduced to the lumen of the right uterine horn to serve as a decidual stimulus. The left horn was left undisturbed to serve as an internal control. Autopsies were performed on Day 7 to assess uterine wet weight gains in the stimulated versus non-stimulated uterine horns.
# Each of these compounds was intraluminally administered in an appropriate dosage on Day 4 along with the sesame oil administration.
# [4] = target: T1, human progesterone receptor (Homo sapiens, UniProt P06401); test: Progesterone receptor binding (displacement of 3H-progesterone, whole cell extract of transfected CV-1 cells); parameters: expressed in transfected cells; host or cells: CV-1 cells (calcium phosphate transfection), whole cell extract
# T1 sequence (P06401 1-933): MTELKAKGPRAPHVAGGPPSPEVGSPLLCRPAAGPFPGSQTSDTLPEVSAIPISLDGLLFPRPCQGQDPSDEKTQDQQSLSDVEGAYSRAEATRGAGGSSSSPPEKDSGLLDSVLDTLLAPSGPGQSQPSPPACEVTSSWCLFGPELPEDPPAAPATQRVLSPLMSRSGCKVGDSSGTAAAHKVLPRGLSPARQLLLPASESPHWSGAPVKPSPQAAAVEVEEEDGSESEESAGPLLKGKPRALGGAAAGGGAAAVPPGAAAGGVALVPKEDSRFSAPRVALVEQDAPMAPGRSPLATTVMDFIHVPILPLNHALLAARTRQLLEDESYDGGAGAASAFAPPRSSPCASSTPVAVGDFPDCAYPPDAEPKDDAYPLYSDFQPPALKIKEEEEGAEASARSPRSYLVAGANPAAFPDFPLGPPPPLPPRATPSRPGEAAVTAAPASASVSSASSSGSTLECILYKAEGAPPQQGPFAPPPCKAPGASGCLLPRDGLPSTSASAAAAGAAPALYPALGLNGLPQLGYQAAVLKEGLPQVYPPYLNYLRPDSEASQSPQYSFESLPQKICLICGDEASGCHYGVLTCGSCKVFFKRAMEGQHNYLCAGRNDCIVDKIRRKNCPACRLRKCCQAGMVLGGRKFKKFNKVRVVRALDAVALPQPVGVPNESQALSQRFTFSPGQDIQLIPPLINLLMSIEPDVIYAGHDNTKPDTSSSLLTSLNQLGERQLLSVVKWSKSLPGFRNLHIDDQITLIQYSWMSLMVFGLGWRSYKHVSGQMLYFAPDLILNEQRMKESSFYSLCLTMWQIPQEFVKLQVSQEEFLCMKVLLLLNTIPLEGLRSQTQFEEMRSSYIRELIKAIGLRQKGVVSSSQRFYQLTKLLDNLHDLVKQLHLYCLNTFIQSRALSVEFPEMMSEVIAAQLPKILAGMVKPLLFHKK
# Method: These tests were conducted according to the following illustrative example.
# CO2 for 40 hours prior to harvest.
# After incubation, cells were harvested and washed in phosphate buffered saline. Whole cell receptor extract was prepared by homogenizing the harvested cells in Tris-HCl buffer, pH=7.4, containing 30% glycerol, 1 mM EDTA, 12 mM monothioglycerol, 1 mM PMSF, and 0.5M potassium chloride. The homogenate was incubated at 4° C. for 60 min with resuspension every 10 min. The suspension was centrifuged (105,000×g, 60 min) and the supernatant was collected and flash frozen in liquid nitrogen and stored frozen at -70° C.
# To a […] final volume incubation mixture, […] of 7.5% (w/v) dextran-coated charcoal suspension in gelatin phosphate buffer was added. The mixture was vortexed and incubated at 4° C. for 10 min and then centrifuged at 3000 rpm for 10 min. The amount of bound tritiated hormone was determined by liquid scintillation spectrophotometry of an aliquot of the supernatant. […]
# T47D cells = test: Alkaline phosphatase activity in T47D cells (induction and its inhibition); format: cell-based, human; settings: ligand alone; three days
# Excerpt: The functional activities of the cyclocymopol analogues in the human breast cell line, T47D, were also investigated. T47D cells have proven to be a particularly useful model to investigate the molecular actions of sex steroids because they contain endogenous functional receptors for, and respond to, progestins, and their respective antagonists. Moreover, these cells contain exceptionally high titers of progesterone receptors and are exquisitely sensitive to the actions of progestins in a manner quite similar to their actions in normal and neoplastic mammary epithelial cells. In T47D cells, progestins induce de novo synthesis of a plasma-associated alkaline phosphatase, which has been reported to be similar, if not identical, to the alkaline phosphatase present in the normal breast and human milk. These tests were conducted according to the following illustrative example. […] For routine induction of alkaline phosphatase, cells were treated for three days with two media changes and harvested as described below. […] Nuclei were sedimented at 2500 rpm, and the supernatant was saved as cytosol. The protein content of the cytosol was assayed by the method of Bradford. Alkaline phosphatase activity was determined by incubating one volume of cell extract with three volumes of 1 mg/ml p-nitrophenol phosphate prepared in DEAM (1M diethanolamine, pH=9, containing 2 mM magnesium chloride) at room temperature for 20 min. At the end of the incubation time, the reaction was stopped with an equal volume of 1N NaOH. Ten standards of p-nitrophenol were prepared in DEAM buffer and absorbance was read at 405 nm. Alkaline phosphatase activity is expressed as pmol p-nitrophenol formed/min/mg protein.
# [5] = target: T1, human progesterone receptor; test: Co-transfection (cis-trans) assay in CV-1 cells, agonist and antagonist mode; format: cell-based; parameters: expressed in transfected cells; host or cells: CV-1 cells (calcium phosphate transfection), whole cell extract; settings: antagonist mode with 10^-8 M progesterone
# Excerpt: as §1, §2, §3, §4, §5
# A total of three replicates per concentration point were tested for each compound, and the EC50 was calculated for each positive response. Both agonist and antagonist activity for each test compound was determined in parallel.
IC50 [1],IC50 [2],Kd [4],Progesterone receptor agonist/antagonist activity [5],Structure (SMILES),"Efficacy (% maximal response relative to RU-486), CV-1 cells [1]","Efficacy (% maximal response relative to RU-486), T47D cells [2]",Inhibition of decidualization weight gain ([3]; 5 mg),Net Uterine Weight Gain ([3]; 5 mg),"Agonist activity, alkaline phosphatase induction (T47D cells)",Inhibition of decidualization weight gain ([3]; 0.1 mg),Net Uterine Weight Gain ([3]; 0.1 mg)
–,–,–,–,"C=C1CCCC(C)(C)C1Cc1cc(OC)c(Br)cc1O (stereo in doubt) [J, (3R)-1-Debromocyclocymopol monomethyl ether]",95%,85%,~91%,30.7 ± 16.2 mg,–,–,–
700 nM,125 nM,55 nM,–,"C=C1C=C(C)CC(C)(C)C1Cc1ccc([N+](=O)[O-])cc1 (stereo not drawn) [I, 1-Methylidene-6-(4'-nitrophenyl)methyl-3,5,5-trimethylcyclohex-2-ene]",95%,75%,approximately 81%,63.9 ± 20.9 mg,–,–,–
2100 nM,1800 nM,409 nM,–,"C=C1CC[C@@H](Br)C(C)(C)[C@@H]1Cc1cc(OC)c(C=O)cc1O [NN, (3R)-4'-Formylcyclocymopol monomethyl ether]",31%,83%,–,–,–,–,–
1000 nM,850 nM,445 nM,–,"C=C1CCCC(C)(C)C1Cc1ccc(Br)cc1 (stereo not drawn) [O, 1-Methylidene-2-(4'-bromophenyl)methyl-3,3-dimethylcyclohexane]",90%,85%,–,–,–,–,–
1200 nM,275 nM,440 nM,–,"C=C1CCC(C)(C)C1Cc1cc(OC)c(Br)cc1O (stereo not drawn) [P, 1-Methylidene-2-(2'-hydroxy-4'-bromo-5'-methoxyphenyl)methyl-3,3-dimethylcyclo-pentane]",100%,60%,–,–,–,–,–
1200 nM,225 nM,245 nM,–,"C=C1CCCCC1Cc1ccc([N+](=O)[O-])cc1 (stereo not drawn) [Q, 1-Methylidene-2-(4'-nitrophenyl)methylcyclohexane]",95%,65%,–,–,–,–,–
–,–,–,progesterone receptor agonist activity,C=C1CC[C@@H](Br)C(C)(C)[C@H]1Cc1cc(OC)c(Br)cc1OC(C)=O [SO-51],–,–,–,–,functional agonists; also recorded: increased the activity of intracellular alkaline phosphatase in a concentration-dependent manner,–,–
1580 nM,300 nM,185 nM,–,"C=C1CC[C@@H](Br)C(C)(C)[C@@H]1Cc1cc(OC)c(Br)cc1OC(=O)OC [T, (3R)-Cyclocymopol monomethyl ether, methyl carbonate]",90%,90%,–,–,–,–,–
1800 nM,325 nM,95 nM,–,"C=C1CC[C@@H](Br)C(C)(C)[C@@H]1Cc1cc(OC)c(I)cc1O [V, (3R)-4'-Iodocyclocymopol monomethyl ether]",95%,85%,–,–,–,–,–
–,–,–,–,"CN(C)c1ccc([C@H]2C[C@]3(C)[C@@H](CC[C@]3(O)CCCO)[C@@H]3CCC4=CC(=O)CCC4=C32)cc1 [ZK299, reference compound]",–,–,–,–,–,approximately 88%,41.1 ± 21.0 mg
